According to patent publication US4560662A, “Streptomyces antibioticus ATCC 31771 and process for obtaining same” (priority 1981, dated 1985):
Converted amounts (≈) assume the structure as drawn. Like-named read-outs stand apart in the source and are kept apart here.

Key:
[1] = system: Staphylococcus aureus ATCC 6538 P; experiment: Bacteriostatic power in solid medium (MIC), aerobic Gram positive; format: cell-based; settings: Staphylococcus aureus
[2] = system: Streptococcus pneumonieae LRP 52; experiment: as above; format: cell-based; settings: Streptococcus
[3] = system: Acholeplasma laidlawii ATCC 23206; experiment: Bacteriostatic power in solid medium (MIC), aerobic Gram negative; format: cell-based; settings: Acholeplasma laidlawii
[4] = system: Escherichia coli LRP 50; experiment: as above; format: cell-based; settings: Escherichia coli
[5] = system: Staphylococcus aureus LRP 14; experiment: Bacteriostatic power in solid medium (MIC), aerobic Gram positive; format: cell-based; settings: Staphylococcus aureus
[6] = system: Fusobacterium necrophorum ATCC 27852; experiment: Bacteriostatic power in solid medium (MIC), anaerobic; format: cell-based; settings: Fusobacterium necrophorum, ATCC27852, read-out: minimum inhibiting concentration
[7] = system: Salmonella typhi LRP 8; experiment: Bacteriostatic power in solid medium (MIC), aerobic Gram negative; format: cell-based; settings: Salmonella enterica, TYPHI, read-out: minimum inhibiting concentration
[8] = system: Neisseria Gonorrhoeae ATCC 19424; experiment: as above; format: cell-based; settings: Neisseria gonorrhoeae
[9] = system: Bacteroides fragilis ATCC 23745; experiment: Bacteriostatic power in solid medium (MIC), anaerobic; format: cell-based; settings: Bacteroides fragilis
[10] = system: Clostridium perfrigens ATCC 3624; experiment: as above; format: cell-based; settings: Clostridium, ATCC3624, LRP 206, read-out: minimum inhibiting concentration
[11] = system: Streptococcus pneumonieae ATCC 6303; experiment: Bacteriostatic power in solid medium (MIC), aerobic Gram positive; format: cell-based; settings: Streptococcus
[12] = system: Bacillus subtilis LRP 25; experiment: as above; format: cell-based; settings: Bacillus subtilis
[13] = system: Streptococcus pneumonieae LRP 53; experiment: as above; format: cell-based; settings: Streptococcus
[14] = system: Streptococcus faecalis LRP 7; experiment: as above; format: cell-based; settings: Enterococcus faecalis
[15] = system: Streptococcus faecalis sub. zymogenes ATCC 12958; experiment: as above; format: cell-based; settings: Enterococcus faecalis
[16] = system: Micrococcus luteus ATCC 9341; experiment: as above; format: cell-based; settings: Micrococcus luteus
[17] = system: Proteus vulgaris ATCC 6380; experiment: Bacteriostatic power in solid medium (MIC), aerobic Gram negative; format: cell-based; settings: Proteus vulgaris
[18] = system: Mycoplasma hominis I ATCC 14097; experiment: as above; format: cell-based; settings: Metamycoplasma hominis
[19] = system: Klebsiella pneumoniae LRP 54; experiment: as above; format: cell-based; settings: Klebsiella pneumoniae
[20] = system: Corynebacterium diphteriae LRP 24; experiment: Bacteriostatic power in solid medium (MIC), aerobic Gram positive; format: cell-based; settings: Corynebacterium
[21] = system: Micrococcus luteus ATCC 15957; experiment: as above; format: cell-based; settings: Micrococcus luteus, ATCC15957, LRP 193, Erythromicina resistant, read-out: minimum inhibiting concentration
Excerpt: (§1) Turning now to an examination of the novel macrolide antibiotics produced according to the present invention, they are all characterized by a bacteriostatic spectrum like that of erythromycin and by the stability in acidic environment, whereby their direct administration by oral route is possible, without having recourse to esters and/or salts, showing the afore mentioned disadvantages and problems. The above is confirmed by the following Table 1, wherein the MIC values are reported, indicating the bacteriostatic power, and by the Table 2, giving the stability values in acidic environment. Without having to be construed in a limiting sense, it seems plausible that the greater stability of the macrolide. antibiotics of the present invention can be attributed to the presence in the molecule of the antibiotic of the neutral sugar oleandrose (J. Antib. (1976) XXIX (7), 728).
(§2) Bacteriostatic power in solid medium of Erythromycin A, Erythromycin B,
(§3) aerobic and anaerobic bacteria, Gram positive and Gram negative minimum
(§4) inhibiting concentrations expressed in mcg/ml.

[22] = system: Staphylococcus aureus ATCC 14154; experiment: as above; format: cell-based; settings: Staphylococcus aureus, ATCC14154, LRP 78, Erythromicina resistant, read-out: minimum inhibiting concentration
Excerpt: as §1, §2, §3, §4

[23] = system: Haemophilus influenzae ATCC 19418; experiment: Bacteriostatic power in solid medium (MIC), aerobic Gram negative; format: cell-based; settings: Haemophilus influenzae, ATCC19418, LRP 213, read-out: minimum inhibiting concentration
Excerpt: as §1, §2, §3, §4

[24] = system: Shigella sonnei LRP 5; experiment: as above; format: cell-based; settings: Shigella sonnei, LRP5, read-out: minimum inhibiting concentration
Excerpt: as §1, §2, §3, §4

[25] = system: Pseudomonas aeruginosa LRP 9; experiment: as above; format: cell-based; settings: Pseudomonas aeruginosa, LRP9, read-out: minimum inhibiting concentration
Excerpt: as §1, §2, §3, §4

[26] = system: Streptococcus pyogenes ATCC 8668; experiment: Bacteriostatic power in solid medium (MIC), aerobic Gram positive; format: cell-based; settings: Streptococcus pyogenes
[27] = system: Streptococcus pyogenes LRP 197; experiment: as above; format: cell-based; settings: Streptococcus pyogenes
[28] = physchem; format: physicochemical; settings: acidic environment
Excerpt: t 1/2 represents the half life time of the antibiotics as determined by
high pressure liquid phase chromatography (HPLC).

`CC[C@H]1OC(=O)[C@H](C)[C@@H](O[C@H]2C[C@@](C)(OC)[C@@H](O)[C@H](C)O2)[C@H](C)[C@@H](O[C@@H]2O[C@H](C)C[C@H](N(C)C)[C@H]2O)[C@](C)(O)C[C@@H](C)C(=O)[C@H](C)[C@@H](O)[C@H]1C` [Erythromycin B, reference compound] gave an MIC ([1]; ATCC6538, solid medium, LRP 39, read-out: minimum inhibiting concentration) of 0.097 µg/mL (≈ 0.135 µM), an MIC ([2]; LRP52, solid medium, LRP 52, read-out: minimum inhibiting concentration) of 0.024 µg/mL (≈ 0.0334 µM) and an MIC ([3]; ATCC23206, solid medium, LRP 204, read-out: minimum inhibiting concentration) of 0.097 µg/mL (≈ 0.135 µM). The MIC ([4]; LRP50, solid medium, LRP 50, read-out: minimum inhibiting concentration) was 25 µg/mL (≈ 34.8 µM), the MIC ([5]; LRP14, solid medium, LRP 14, Penycilline resistant, read-out: minimum inhibiting concentration) was 0.195 µg/mL (≈ 0.272 µM) and the MIC [6] was 6.25 µg/mL (≈ 8.71 µM). It also gave an MIC [7] of 25 µg/mL (≈ 34.8 µM), an MIC ([8]; ATCC19424, solid medium, LRP 214, read-out: minimum inhibiting concentration) of 0.097 µg/mL (≈ 0.135 µM) and an MIC ([9]; ATCC23745, solid medium, LRP 205, anaerobic, read-out: minimum inhibiting concentration) of 0.195 µg/mL (≈ 0.272 µM). For the same compound, the MIC [10] was 1.56 µg/mL (≈ 2.17 µM), the MIC ([11]; ATCC6303, solid medium, LRP 35, read-out: minimum inhibiting concentration) was 0.024 µg/mL (≈ 0.0334 µM) and the MIC ([12]; LRP25, solid medium, LRP 25, read-out: minimum inhibiting concentration) was 0.049 µg/mL (≈ 0.0683 µM). It also gave an MIC ([13]; LRP53, solid medium, LRP 53, read-out: minimum inhibiting concentration) of 0.024 µg/mL (≈ 0.0334 µM), an MIC ([14]; LRP7, solid medium, LRP 7, read-out: minimum inhibiting concentration) of 0.195 µg/mL (≈ 0.272 µM) and an MIC ([15]; ATCC12958, solid medium, LRP 61, read-out: minimum inhibiting concentration) of 0.195 µg/mL (≈ 0.272 µM). For the same compound, the MIC ([16]; ATCC9341, solid medium, LRP 6, read-out: minimum inhibiting concentration) was 0.006 µg/mL (≈ 0.00836 µM), the MIC ([17]; ATCC6380, solid medium, LRP 13, read-out: minimum inhibiting concentration) was greater than 25 µg/mL and the MIC ([18]; ATCC14097, solid medium, LRP 211, read-out: minimum inhibiting concentration) was greater than 25 µg/mL. It also gave an MIC ([19]; LRP54, solid medium, LRP 54, read-out: minimum inhibiting concentration) of 25 µg/mL (≈ 34.8 µM), an MIC ([20]; LRP24, solid medium, LRP 24, read-out: minimum inhibiting concentration) of 0.012 µg/mL (≈ 0.0167 µM) and an MIC [21] greater than 25 µg/mL. For the same compound, the MIC [22] was greater than 25 µg/mL, the MIC [23] was 6.25 µg/mL (≈ 8.71 µM) and the MIC [24] was greater than 25 µg/mL. For the same compound, the MIC [25] was greater than 25 µg/mL, the MIC ([26]; ATCC8668, solid medium, LRP 34, read-out: minimum inhibiting concentration) was 0.024 µg/mL (≈ 0.0334 µM) and the MIC ([27]; LRP197, solid medium, LRP 197, read-out: minimum inhibiting concentration) was 0.024 µg/mL (≈ 0.0334 µM).

Work on `CC[C@H]1OC(=O)[C@H](C)[C@@H](O[C@H]2C[C@H](OC)[C@@H](O)[C@H](C)O2)[C@H](C)[C@@H](O[C@@H]2O[C@H](C)C[C@H](N(C)C)[C@H]2O)[C@](C)(O)C[C@@H](C)C(=O)[C@H](C)[C@@H](O)[C@H]1C` [P 15149, 3-O-oleandrosyl-5-O-desosaminyl-erythronolide B] yielded an MIC ([1]; ATCC6538, read-out: minimum inhibiting concentration) of 0.78 µg/mL (≈ 1.11 µM), an MIC ([2]; LRP52, read-out: minimum inhibiting concentration) of 0.097 µg/mL (≈ 0.138 µM) and an MIC ([3]; ATCC23206, read-out: minimum inhibiting concentration) of 12.5 µg/mL (≈ 17.8 µM). The MIC ([4]; LRP50, read-out: minimum inhibiting concentration) was greater than 25 µg/mL, the MIC ([5]; LRP14, read-out: minimum inhibiting concentration) was 0.78 µg/mL (≈ 1.11 µM) and the MIC [6] was greater than 25 µg/mL. It also gave an MIC [7] greater than 25 µg/mL, an MIC ([8]; ATCC19424, read-out: minimum inhibiting concentration) of 0.195 µg/mL (≈ 0.277 µM) and an MIC ([9]; ATCC23745, read-out: minimum inhibiting concentration) of 3.12 µg/mL (≈ 4.43 µM). The MIC [10] was 12.5 µg/mL (≈ 17.8 µM), the MIC ([11]; ATCC6303, read-out: minimum inhibiting concentration) was 0.097 µg/mL (≈ 0.138 µM) and the MIC ([12]; LRP25, read-out: minimum inhibiting concentration) was 0.039 µg/mL (≈ 0.0554 µM). It also gave an MIC ([13]; LRP53, read-out: minimum inhibiting concentration) of 0.097 µg/mL (≈ 0.138 µM), an MIC ([14]; LRP7, read-out: minimum inhibiting concentration) of 0.78 µg/mL (≈ 1.11 µM) and an MIC ([15]; ATCC12958, read-out: minimum inhibiting concentration) of 0.78 µg/mL (≈ 1.11 µM). The MIC ([16]; ATCC9341, read-out: minimum inhibiting concentration) was 0.097 µg/mL (≈ 0.138 µM), the MIC ([17]; ATCC6380, read-out: minimum inhibiting concentration) was greater than 25 µg/mL and the MIC ([18]; ATCC14097, read-out: minimum inhibiting concentration) was greater than 25 µg/mL. For the same compound, the MIC ([19]; LRP54, read-out: minimum inhibiting concentration) was greater than 25 µg/mL, the half-life ([28]; pH 2) was 18 h and the half-life ([28]; pH 3, read-out: t 1/2) was greater than 100 h. For the same compound, the half-life ([28]; pH 4, read-out: t 1/2) was greater than 100 h, the MIC ([20]; LRP24, read-out: minimum inhibiting concentration) was 0.049 µg/mL (≈ 0.0696 µM) and the MIC [21] was greater than 25 µg/mL. The MIC [22] was greater than 25 µg/mL, the MIC [23] was 6.25 µg/mL (≈ 8.88 µM) and the MIC [24] was greater than 25 µg/mL. For the same compound, the MIC [25] was greater than 25 µg/mL, the MIC ([26]; ATCC8668, read-out: minimum inhibiting concentration) was 0.097 µg/mL (≈ 0.138 µM) and the MIC ([27]; LRP197, read-out: minimum inhibiting concentration) was 0.097 µg/mL (≈ 0.138 µM).
